Measured values: publication PMC5290327, “SC83288 is a clinical development candidate for the treatment of severe malaria” (Nature Communications, 2017)

How the values were obtained:
Assay in all cases: KINOMEscan
Format in all cases: binding
Settings in all cases: read-out: Remaining enzyme activity
[1] = biological target: T1, ACVR1 (Homo sapiens, UniProt Q04771)
T1 construct: purchased Ambit (DiscoverX) KINOMEscan; Cerep
Experimental: (§1) The KINOMEscan was carried out by Ambit (San Diego, USA) according to a previously established protocol. The experiment was based on a competition binding assay that quantitatively measures the ability of a compound to compete with an immobilized, active-site directed ligand. The assay is performed by combining three components: DNA-tagged kinase; immobilized ligand; and a test compound. The ability of the test compound to compete with the immobilized ligand is measured via quantitative PCR of the DNA tag.
(§2) For most assays, kinase-tagged T7 phage strains were grown in parallel in 24-well blocks in an Escherichia coli host derived from the BL21 strain. E. coli were grown to log-phase and infected with T7 phage from a frozen stock and incubated with shaking at 32 °C until lysis (90–150 min). The lysates were centrifuged (6,000g) and filtered (0.2 μm) to remove cell debris. The remaining kinases were produced in HEK-293 cells (Sigma Aldrich, catalogue number: 85120602) and subsequently tagged with DNA for quantitative PCR detection. […] The liganded beads were blocked with excess biotin and washed with blocking buffer (SeaBlock (Pierce), 1% bovine serum albumin, 0.05% Tween 20 and 1 mM dithiothreitol) to remove unbound ligand and to reduce non-specific phage binding. […] SC81458 was prepared as 40x stock in 100% DMSO and directly diluted into the assay to a final concentration of 10 μM. All reactions were performed in polypropylene 384-well plates in a final volume of 0.04 ml. […] The kinase concentration in the eluates was measured by quantitative PCR.

[2] = biological target: T2, AURKB (Homo sapiens, UniProt Q96GD4)
T2 construct: purchased Ambit (DiscoverX) KINOMEscan; Cerep
Experimental: as §1, §2

[3] = biological target: T3, BRSK1 (Homo sapiens, UniProt Q8TDC3)
T3 construct: purchased Ambit (DiscoverX) KINOMEscan; Cerep
Experimental: as §1, §2

[4] = biological target: T4, CSNK2a2 (Homo sapiens, UniProt P19784)
T4 construct: purchased Ambit (DiscoverX) KINOMEscan; Cerep
Experimental: as §1, §2

[5] = biological target: T5, DCAMKL1 (Homo sapiens, UniProt O15075)
T5 construct: purchased Ambit (DiscoverX) KINOMEscan; Cerep
Experimental: as §1, §2

[6] = biological target: T6, DDR2 (Homo sapiens, UniProt Q16832)
T6 construct: purchased Ambit (DiscoverX) KINOMEscan; Cerep
Experimental: as §1, §2

[7] = biological target: T7, EGFR(G719C) (Homo sapiens, UniProt P00533, G719C)
T7 construct: purchased Ambit (DiscoverX) KINOMEscan; Cerep
Experimental: as §1, §2

[8] = biological target: T8, EGFR(L861Q) (Homo sapiens, UniProt P00533, L861Q)
T8 construct: purchased Ambit (DiscoverX) KINOMEscan; Cerep
Experimental: as §1, §2

[9] = biological target: T9, EPHB3 (Homo sapiens, UniProt P54753)
T9 construct: purchased Ambit (DiscoverX) KINOMEscan; Cerep
Experimental: as §1, §2

[10] = biological target: T10, ERK2 (Homo sapiens, UniProt P28482)
T10 construct: purchased Ambit (DiscoverX) KINOMEscan; Cerep
Experimental: as §1, §2

[11] = biological target: T11, FLT3(D835H) (Homo sapiens, UniProt P36888, D835H)
T11 construct: purchased Ambit (DiscoverX) KINOMEscan; Cerep
Experimental: as §1, §2

[12] = biological target: T12, FLT4 (Homo sapiens, UniProt P35916)
T12 construct: purchased Ambit (DiscoverX) KINOMEscan; Cerep
Experimental: as §1, §2

[13] = biological target: T13, HIPK1 (Homo sapiens, UniProt Q86Z02)
T13 construct: purchased Ambit (DiscoverX) KINOMEscan; Cerep
Experimental: as §1, §2

[14] = biological target: T14, HUNK (Homo sapiens, UniProt P57058)
T14 construct: purchased Ambit (DiscoverX) KINOMEscan; Cerep
Experimental: as §1, §2

[15] = biological target: T15, JAK2(JH1domain-catalytic) (Homo sapiens, UniProt O60674)
T15 construct: JAK2(JH1domain-catalytic); purchased Ambit (DiscoverX) KINOMEscan; Cerep
Experimental: as §1, §2

[16] = biological target: T16, KIT(D816V) (Homo sapiens, UniProt P10721, D816V)
T16 construct: purchased Ambit (DiscoverX) KINOMEscan; Cerep
Experimental: as §1, §2

[17] = biological target: T17, KIT(V559D) (Homo sapiens, UniProt P10721, V559D)
T17 construct: purchased Ambit (DiscoverX) KINOMEscan; Cerep
Experimental: as §1, §2

[18] = biological target: T18, KIT(V559D, V654A) (Homo sapiens, UniProt P10721, V559D/V654A)
T18 construct: purchased Ambit (DiscoverX) KINOMEscan; Cerep
Experimental: as §1, §2

[19] = biological target: T19, LIMK1 (Homo sapiens, UniProt P53667)
T19 construct: purchased Ambit (DiscoverX) KINOMEscan; Cerep
Experimental: as §1, §2

[20] = biological target: T20, LTK (Homo sapiens, UniProt P29376)
T20 construct: purchased Ambit (DiscoverX) KINOMEscan; Cerep
Experimental: as §1, §2

[21] = biological target: T21, MEK4 (Homo sapiens, UniProt P45985)
T21 construct: purchased Ambit (DiscoverX) KINOMEscan; Cerep
Experimental: as §1, §2

[22] = biological target: T22, MELK (Homo sapiens, UniProt Q14680)
T22 construct: purchased Ambit (DiscoverX) KINOMEscan; Cerep
Experimental: as §1, §2

[23] = biological target: T23, MRCKA (Homo sapiens, UniProt Q5VT25)
T23 construct: purchased Ambit (DiscoverX) KINOMEscan; Cerep
Experimental: as §1, §2

[24] = biological target: T24, MYO3b (Homo sapiens, UniProt Q8WXR4)
T24 construct: purchased Ambit (DiscoverX) KINOMEscan; Cerep
Experimental: as §1, §2

[25] = biological target: T25, PAK3 (Homo sapiens, UniProt O75914)
T25 construct: purchased Ambit (DiscoverX) KINOMEscan; Cerep
Experimental: as §1, §2

[26] = biological target: T26, PKN2 (Homo sapiens, UniProt Q16513)
T26 construct: purchased Ambit (DiscoverX) KINOMEscan; Cerep
Experimental: as §1, §2

[27] = biological target: T27, ROS1 (Homo sapiens, UniProt P08922)
T27 construct: purchased Ambit (DiscoverX) KINOMEscan; Cerep
Experimental: as §1, §2

[28] = biological target: T28, RPS6KA1(Kin.Dom.2-C-term) (Homo sapiens, UniProt Q15418)
T28 construct: RPS6KA1(Kin.Dom.2-C-term); purchased Ambit (DiscoverX) KINOMEscan; Cerep
Experimental: as §1, §2

[29] = biological target: T29, SYK (Homo sapiens, UniProt P43405)
T29 construct: purchased Ambit (DiscoverX) KINOMEscan; Cerep
Experimental: as §1, §2

[30] = biological target: T30, SgK110 (Homo sapiens, UniProt P0C264)
T30 construct: purchased Ambit (DiscoverX) KINOMEscan; Cerep
Experimental: as §1, §2

[31] = biological target: T31, TAK1 (Homo sapiens, UniProt O43318)
T31 construct: purchased Ambit (DiscoverX) KINOMEscan; Cerep
Experimental: as §1, §2

[32] = biological target: T32, VEGFR2 (Homo sapiens, UniProt P35968)
T32 construct: purchased Ambit (DiscoverX) KINOMEscan; Cerep
Experimental: as §1, §2

T27 sequence (P08922 28-2347): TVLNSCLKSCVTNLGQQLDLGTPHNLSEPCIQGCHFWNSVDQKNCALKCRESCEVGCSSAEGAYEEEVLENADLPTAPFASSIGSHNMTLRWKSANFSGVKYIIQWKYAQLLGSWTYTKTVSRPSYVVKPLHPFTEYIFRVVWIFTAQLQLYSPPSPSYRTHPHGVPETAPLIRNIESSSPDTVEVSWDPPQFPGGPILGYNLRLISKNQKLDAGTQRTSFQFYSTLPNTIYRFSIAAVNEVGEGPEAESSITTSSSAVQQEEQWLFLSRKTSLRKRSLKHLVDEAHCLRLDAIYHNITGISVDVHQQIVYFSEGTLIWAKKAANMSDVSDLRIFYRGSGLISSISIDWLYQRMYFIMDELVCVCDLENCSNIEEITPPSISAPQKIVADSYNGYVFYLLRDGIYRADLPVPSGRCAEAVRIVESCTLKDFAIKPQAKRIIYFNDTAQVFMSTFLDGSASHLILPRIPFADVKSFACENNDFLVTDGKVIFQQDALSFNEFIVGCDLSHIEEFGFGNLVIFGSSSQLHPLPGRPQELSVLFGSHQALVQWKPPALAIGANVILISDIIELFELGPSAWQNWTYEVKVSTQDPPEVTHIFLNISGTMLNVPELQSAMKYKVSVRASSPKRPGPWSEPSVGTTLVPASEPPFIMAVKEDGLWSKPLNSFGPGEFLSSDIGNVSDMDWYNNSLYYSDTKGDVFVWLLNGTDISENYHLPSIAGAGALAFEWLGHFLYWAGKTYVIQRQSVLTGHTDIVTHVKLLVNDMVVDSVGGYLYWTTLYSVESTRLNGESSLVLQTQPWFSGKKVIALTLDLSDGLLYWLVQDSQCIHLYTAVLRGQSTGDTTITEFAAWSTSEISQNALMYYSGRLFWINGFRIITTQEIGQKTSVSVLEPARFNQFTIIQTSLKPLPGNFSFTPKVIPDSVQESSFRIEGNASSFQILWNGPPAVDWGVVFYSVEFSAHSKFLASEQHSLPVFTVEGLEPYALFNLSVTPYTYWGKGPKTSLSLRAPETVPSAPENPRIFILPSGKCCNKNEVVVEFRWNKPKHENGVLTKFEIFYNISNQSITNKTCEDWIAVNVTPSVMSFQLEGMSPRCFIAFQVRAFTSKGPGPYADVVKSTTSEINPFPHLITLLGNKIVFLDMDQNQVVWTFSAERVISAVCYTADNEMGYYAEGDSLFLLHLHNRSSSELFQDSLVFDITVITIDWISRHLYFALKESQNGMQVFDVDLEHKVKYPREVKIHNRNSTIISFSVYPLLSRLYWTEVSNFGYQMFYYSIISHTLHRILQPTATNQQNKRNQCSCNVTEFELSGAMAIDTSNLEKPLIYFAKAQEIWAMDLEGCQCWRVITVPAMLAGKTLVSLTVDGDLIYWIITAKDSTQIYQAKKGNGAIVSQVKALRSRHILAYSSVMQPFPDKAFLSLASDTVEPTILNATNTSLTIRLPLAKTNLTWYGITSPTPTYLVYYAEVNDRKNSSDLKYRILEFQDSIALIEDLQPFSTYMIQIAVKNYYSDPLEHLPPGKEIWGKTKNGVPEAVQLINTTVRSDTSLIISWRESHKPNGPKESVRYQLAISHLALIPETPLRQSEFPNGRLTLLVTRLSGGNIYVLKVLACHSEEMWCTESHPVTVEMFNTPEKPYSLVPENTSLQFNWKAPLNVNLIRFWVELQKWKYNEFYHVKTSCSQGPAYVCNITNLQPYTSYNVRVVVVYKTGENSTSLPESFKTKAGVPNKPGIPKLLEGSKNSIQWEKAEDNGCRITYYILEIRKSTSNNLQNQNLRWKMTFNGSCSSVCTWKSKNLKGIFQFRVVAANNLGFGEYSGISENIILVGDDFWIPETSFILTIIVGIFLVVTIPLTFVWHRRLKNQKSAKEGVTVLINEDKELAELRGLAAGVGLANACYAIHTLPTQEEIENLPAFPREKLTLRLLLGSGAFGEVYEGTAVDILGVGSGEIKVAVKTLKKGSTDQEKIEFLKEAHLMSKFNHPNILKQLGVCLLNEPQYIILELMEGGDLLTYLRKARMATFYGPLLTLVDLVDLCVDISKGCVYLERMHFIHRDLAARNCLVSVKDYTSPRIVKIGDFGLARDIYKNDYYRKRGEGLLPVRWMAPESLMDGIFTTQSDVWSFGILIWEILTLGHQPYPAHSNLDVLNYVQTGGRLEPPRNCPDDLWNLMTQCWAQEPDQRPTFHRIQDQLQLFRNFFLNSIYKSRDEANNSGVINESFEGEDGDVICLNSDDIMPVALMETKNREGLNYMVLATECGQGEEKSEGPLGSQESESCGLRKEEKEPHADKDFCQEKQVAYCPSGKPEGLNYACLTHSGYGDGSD
T2 sequence (Q96GD4 whole entry): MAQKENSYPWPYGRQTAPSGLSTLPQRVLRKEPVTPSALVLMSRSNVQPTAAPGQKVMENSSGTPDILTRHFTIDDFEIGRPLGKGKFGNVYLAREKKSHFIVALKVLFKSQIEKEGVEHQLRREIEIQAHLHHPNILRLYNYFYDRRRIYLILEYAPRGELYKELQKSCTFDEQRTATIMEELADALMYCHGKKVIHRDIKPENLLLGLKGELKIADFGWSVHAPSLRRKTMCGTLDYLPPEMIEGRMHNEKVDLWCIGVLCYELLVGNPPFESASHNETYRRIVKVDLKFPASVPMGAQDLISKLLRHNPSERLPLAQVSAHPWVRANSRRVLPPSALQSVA
T14 sequence (P57058 whole entry): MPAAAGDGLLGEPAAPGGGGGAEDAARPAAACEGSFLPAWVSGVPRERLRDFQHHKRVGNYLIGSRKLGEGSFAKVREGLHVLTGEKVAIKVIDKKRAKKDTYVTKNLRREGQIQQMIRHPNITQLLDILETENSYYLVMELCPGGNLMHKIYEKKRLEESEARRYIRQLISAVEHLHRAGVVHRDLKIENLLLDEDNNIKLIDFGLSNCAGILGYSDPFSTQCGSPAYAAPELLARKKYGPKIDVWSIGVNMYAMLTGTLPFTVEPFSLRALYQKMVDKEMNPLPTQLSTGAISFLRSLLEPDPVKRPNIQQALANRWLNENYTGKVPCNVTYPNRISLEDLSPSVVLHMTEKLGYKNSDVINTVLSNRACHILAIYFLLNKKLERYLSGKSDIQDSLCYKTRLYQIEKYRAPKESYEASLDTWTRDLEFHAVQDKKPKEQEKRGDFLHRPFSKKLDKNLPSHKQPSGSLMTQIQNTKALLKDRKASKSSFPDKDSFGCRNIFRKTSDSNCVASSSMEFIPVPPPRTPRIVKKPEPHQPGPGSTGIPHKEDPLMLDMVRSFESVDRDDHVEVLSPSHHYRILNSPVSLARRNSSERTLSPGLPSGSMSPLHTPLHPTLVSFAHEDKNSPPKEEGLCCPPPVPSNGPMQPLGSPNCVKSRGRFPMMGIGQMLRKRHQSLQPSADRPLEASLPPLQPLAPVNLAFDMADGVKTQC
T8 sequence (P00533 25-1210 L861Q): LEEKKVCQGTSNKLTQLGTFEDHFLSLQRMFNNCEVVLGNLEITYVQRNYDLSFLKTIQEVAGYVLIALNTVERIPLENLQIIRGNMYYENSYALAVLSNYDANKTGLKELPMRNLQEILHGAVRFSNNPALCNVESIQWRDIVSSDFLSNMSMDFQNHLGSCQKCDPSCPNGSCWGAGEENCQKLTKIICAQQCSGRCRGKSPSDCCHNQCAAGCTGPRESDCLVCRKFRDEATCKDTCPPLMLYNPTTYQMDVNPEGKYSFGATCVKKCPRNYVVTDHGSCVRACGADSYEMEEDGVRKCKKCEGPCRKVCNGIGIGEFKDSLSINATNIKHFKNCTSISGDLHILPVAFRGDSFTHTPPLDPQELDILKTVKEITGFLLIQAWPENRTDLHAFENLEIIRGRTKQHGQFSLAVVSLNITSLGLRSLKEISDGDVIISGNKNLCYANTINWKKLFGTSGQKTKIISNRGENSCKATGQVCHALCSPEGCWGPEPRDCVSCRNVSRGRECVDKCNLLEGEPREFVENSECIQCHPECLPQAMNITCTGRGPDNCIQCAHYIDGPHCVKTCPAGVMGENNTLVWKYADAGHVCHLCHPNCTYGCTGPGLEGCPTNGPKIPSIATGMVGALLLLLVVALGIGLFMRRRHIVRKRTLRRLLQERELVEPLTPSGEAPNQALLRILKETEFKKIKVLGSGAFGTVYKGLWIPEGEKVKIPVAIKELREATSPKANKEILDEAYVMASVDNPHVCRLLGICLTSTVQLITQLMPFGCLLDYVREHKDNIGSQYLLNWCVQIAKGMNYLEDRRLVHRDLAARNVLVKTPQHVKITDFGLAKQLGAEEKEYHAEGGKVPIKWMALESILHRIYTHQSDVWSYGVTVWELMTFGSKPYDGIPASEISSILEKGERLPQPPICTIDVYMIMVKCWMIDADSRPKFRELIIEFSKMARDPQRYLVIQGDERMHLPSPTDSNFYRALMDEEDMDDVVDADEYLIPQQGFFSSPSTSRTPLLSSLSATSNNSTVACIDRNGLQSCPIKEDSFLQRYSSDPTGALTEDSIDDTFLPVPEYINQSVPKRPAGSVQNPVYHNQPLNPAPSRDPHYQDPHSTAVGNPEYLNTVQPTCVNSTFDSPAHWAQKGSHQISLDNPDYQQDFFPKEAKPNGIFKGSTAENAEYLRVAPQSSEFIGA
T28 sequence (Q15418 418-675 limits assumed): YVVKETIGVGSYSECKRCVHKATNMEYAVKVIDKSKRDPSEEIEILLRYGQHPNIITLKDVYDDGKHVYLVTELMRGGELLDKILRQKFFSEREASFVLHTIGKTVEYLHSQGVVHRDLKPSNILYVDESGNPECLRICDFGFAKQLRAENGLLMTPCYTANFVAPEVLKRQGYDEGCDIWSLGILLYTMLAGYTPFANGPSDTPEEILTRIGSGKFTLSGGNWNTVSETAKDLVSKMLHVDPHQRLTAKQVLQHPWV

## CCCCN1CCN(C(=N)c2cccc(NC(=O)Nc3ccc(S(=O)(=O)NCc4ccc(S(N)(=O)=O)cc4)cc3)c2)CC1 [SC81458, 4-(3-(3-((4-butylpiperazin-1-yl)(imino)methyl)phenyl)ureido)-N-(4-sulfamoylbenzyl) benzenesulfonamide]
[1]
  remaining binding at 10 µM: 84%
[2]
  remaining binding at 10 µM: 78%
[3]
  remaining binding at 10 µM: 69%
[4]
  remaining binding at 10 µM: 78%
[5]
  remaining binding at 10 µM: 100%
[6]
  remaining binding at 10 µM: 100%
[7]
  remaining binding at 10 µM: 80%
[8]
  remaining binding at 10 µM: 91%
[9]
  remaining binding at 10 µM: 98%
[10]
  remaining binding at 10 µM: 80%
[11]
  remaining binding at 10 µM: 100%
[12]
  remaining binding at 10 µM: 100%
[13]
  remaining binding at 10 µM: 100%
[14]
  remaining binding at 10 µM: 100%
[15]
  remaining binding at 10 µM: 100%
[16]
  remaining binding at 10 µM: 100%
[17]
  remaining binding at 10 µM: 100%
[18]
  remaining binding at 10 µM: 100%
[19]
  remaining binding at 10 µM: 76%
[20]
  remaining binding at 10 µM: 100%
[21]
  remaining binding at 10 µM: 100%
[22]
  remaining binding at 10 µM: 100%
[23]
  remaining binding at 10 µM: 100%
[24]
  remaining binding at 10 µM: 100%
[25]
  remaining binding at 10 µM: 93%
[26]
  remaining binding at 10 µM: 67%
[27]
  remaining binding at 10 µM: 100%
[28]
  remaining binding at 10 µM: 100%
[29]
  remaining binding at 10 µM: 100%
[30]
  remaining binding at 10 µM: 100%
[31]
  remaining binding at 10 µM: 100%
[32]
  remaining binding at 10 µM: 84%
